Measurements: patent EP4806443A1, “ANTICANCER AGENT KIT” (Nihon Trim Co., Ltd., priority 2023, dated 2025)

What was measured:
Type in all cases: cell-based, Human
Caco-2 cells = experiment: Cell growth inhibitory effect (Cell Counting Kit-8), Caco-2; details: doxorubicin 1, 2, or 4 µM in serum-free medium (autophagy activating conditions), 24 hours (FIG. 12)
Experimental: FIGS. 12 to 15 show the results.
In FIG. 12, DOX + serum free represents DMEM with no serum (serum-free medium) to which doxorubicin was added at a predetermined concentration (1, 2, or 4 µM), DOX represents serum-containing DMEM with doxorubicin added at a predetermined concentration, and DOX + Baf. represents a medium (Baf. A1-containing medium) containing 200 nM Bafilomycin A1 (Baf. A1) dissolved in serum-containing DMEM, to which doxorubicin was added at the predetermined concentration.
In FIG. 15, FW (Medium + Baf. A1) represents a medium (Baf. A1-containing filtered-water medium) containing 200 nM Baf.

[1] = tested on: HeLa cells in which ATG7 (autophagy-related gene) was knocked out (ATG7 KO); experiment: Cell growth inhibitory effect (Cell Counting Kit-8), HeLa ATG7 KO; details: 24 hours
Experimental: The results are shown in FIGS. 8 (ATG7 WT) and 9 (ATG7 KO).
FIGS. 20 and 21 show the results.
In FIGS. 20 and 21, HW represents DMEM (produced hydrogen water medium) containing produced hydrogen water with a dissolved hydrogen concentration of 0 ppm to 4 ppm, and HW + DOX represents the DMEM (produced hydrogen water medium) to which 0.5 µM doxorubicin was added.
The results are shown in FIGS. 26 (ATG7 WT) and 27 (ATG7 KO).

[2] = tested on: HeLa cells in which ATG7 was knocked out (ATG7 KO); experiment: Apoptosis induction (Cell Death Detection […]), HeLa ATG7 KO; details: doxorubicin 1 or 2 µM, 24 hours; ATG7 KO compared with ATG7 WT (FIG. 7)
Experimental: Apoptosis induction was assessed using Cell Death Detection [sequence] (Roche Diagnostics, Basel, Switzerland) according to the manual. HeLa cells (ATG7 WT) or HeLa cells in which ATG7 was knocked out (ATG7 KO) were seeded into a 12-well plate at 1.0 × 10^5 cells/well and cultured (precultured) in DMEM under the conditions of 37°C and 5% CO2 for 24 hours. After the preculture, the medium was exchanged with DMEM supplemented with an anticancer agent containing doxorubicin at a predetermined concentration (1 or 2 µM), and the cells were cultured for 24 hours. The cells were then lysed with a lysis buffer, and the lysate was added to each well of the ELISA plate, incubated with an immunological reagent buffer containing anti-histone biotin and anti-DNA POD for 2 hours, and washed with an incubation buffer. Then, the resultant was reacted with 100 µL of an ABTS substrate buffer, and the absorbance was measured at 405 nm and 490 nm.
Apoptosis induction was assessed using Cell Death Detection [sequence] (Roche Diagnostics, Basel, Switzerland) according to the manual. […] Then, the resultant was reacted with 100 µL of an ABTS substrate buffer, and the absorbance was measured at 405 nm and 490 nm.

[3] = tested on: HeLa cells expressing a GFP-LC3-RFP-LC3ΔG probe; experiment: Autophagic activity based on GFP/RFP ratio (flow cytometry), HeLa
Experimental: Then, the cells were detached and suspended, and the fluorescence intensities of GFP and RFP were analyzed by flow cytometry. The autophagic activity was quantitatively analyzed by determining the GFP/RFP ratio.
A1-containing filtered-water medium) containing 200 nM Baf.
The GFP-LC3-RFP-LC3ΔG probe (or a GFP-LC3-RFP probe described later) is described in, for example, the following paper. The GFP-LC3-RFP-LC3ΔG probe (or GFP-LC3-RFP probe) is cleaved by ATG4, and the same number of GFP-LC3 and RFP-LC3ΔG (or RFP) are produced in the cytoplasm. GFP-LC3 is localized in the autophagosomes, and then quenched and degraded in the autolysosomes. RFP-LC3ΔG (or RFP) remains in the cytoplasm and serves as an internal control reflecting the amount of GFP-LC3. The GFP/RFP ratio is obtained by quantifying the cumulative amount of degradation of GFP-LC3 by autophagy. A decrease in the GFP/RFP ratio indicates autophagy activation. An increase in the GFP/RFP ratio indicates autophagy inhibition. […]
(§1) Then, the cells were detached and suspended in the same manner as described in the section (2-3), and the fluorescence intensities of GFP and RFP were analyzed by flow cytometry. The autophagic activity was quantitatively analyzed by determining the GFP/RFP ratio.

[4] = tested on: HCT116 cells expressing the GFP-LC3-RFP probe; experiment: Autophagic activity based on GFP/RFP ratio (flow cytometry), HCT116; details: fluorouracil 1 or 10 µM, 24 hours (FIG. 25)
Experimental: as §1

COc1cccc2c1C(=O)c1c(O)c3c(c(O)c1C2=O)C[C@@](O)(C(=O)CO)C[C@@H]3O[C@H]1C[C@H](N)[C@H](O)[C@H](C)O1 [doxorubicin]
cell growth inhibitory effect of doxorubicin (Caco-2 cells): rather reduced | cell growth inhibitory effect ([1]; doxorubicin 1, 2, or 4 µM, ATG7 KO compared with ATG7 WT (FIG. 6)): enhanced | apoptosis induction [2]: enhanced | GFP/RFP ratio ([3]; doxorubicin 1, 2, or 4 µM, 4 hours, a decrease indicates autophagy activation (FIG. 5)): decreased as the doxorubicin concentration increased

O=c1[nH]cc(F)c(=O)[nH]1 [fluorouracil]
GFP/RFP ratio [4]: decreased as the fluorouracil concentration increased

CC(=O)O[C@H]1C(=O)[C@@]2(C)[C@H]([C@H](OC(=O)c3ccccc3)[C@]3(O)C[C@H](OC(=O)[C@H](O)[C@@H](NC(=O)c4ccccc4)c4ccccc4)C(C)=C1C3(C)C)[C@]1(OC(C)=O)CO[C@@H]1C[C@@H]2O [paclitaxel]
anticancer effect (cell growth inhibitory effect) ([1]; paclitaxel 1, 10, or 50 nM, ATG7 KO compared with ATG7 WT (FIG. 24)): enhanced | GFP/RFP ratio ([3]; paclitaxel 1, 5, or 10 nM, 24 hours (FIG. 23)): decreased as the paclitaxel concentration increased
